Measurements as given in US20240383900A1, “SUBSTITUTED PYRAZOLO [1,5-A]PYRIMIDINE-7-AMINE COMPOUNDS AS CDK INHIBITORS AND THEIR THERAPEUTIC USE” (Carrick Therapeutics Limited, priority 2021, published 2024).
Like-named read-outs stand apart in the source and are kept apart here.

Experiments:
[1] = tested on: A673 cells; experiment: Cytotoxicity in A673 cells (Cell Titer Glo viability); assay type: cell-based; settings: for IC50: Homo sapiens; for Ratio of Biochemical Potency:Cellular Potency: CDK12 IC50 / A673 IC50
Method: (§1) Cells were plated in 96-well plates at a density of […] viable cells per well in 200 μL fully supplemented growth medium (DMEM+10% heat inactivated foetal bovine serum) and incubated for 24 hours in standard tissue culture conditions. Compounds, including MLN4924, were solubilised in DMSO and then diluted in fully supplemented growth medium at 2× their final assay concentration such that the final DMSO concentration was 0.1%. Growth medium in the assay plates was replaced with 50 μL of growth medium containing 2×MLN4924 (final assay concentration: 30 nM, where tested) or vehicle only and 50 μL of growth medium containing a 2× compound concentration series or vehicle only such that each compound was at 1× final assay concentration in 100 μL.
Cells were then incubated for 72 hours in standard tissue culture conditions before viability was assessed using 50 μL Cell Titer Glo reagent (Promega) per well and luminescence measured on an EnVision plate reader. Data were normalised to vehicle control (100%) and cells treated with 0.1% Triton x-100 for 1 hour before viability measurement (0%; full cell kill). […] Viability curves generated in the presence of MLN4924 were normalised and fixed to controls treated with MLN4924.

[2] = tested on: A673 cells; experiment: A673 cytotoxic potency shift in the presence of MLN4924 (cyclin K degrader activity); assay type: cell-based; settings: 30 nM MLN4924, 72 hours
Method: Inhibition of cell viability by test compounds was assessed in A673 cells (ATCC CRL-1598) and the compound mode of action was attributed to a “molecular-glue”/cyclin K-degradation mechanism by probing for a loss of compound potency in the presence of the NEDD8-activating enzyme inhibitor, MLN4924.
as §1
Cells were then incubated for 72 hours in standard tissue culture conditions before viability was assessed using 50 μL Cell Titer Glo reagent (Promega) per well and luminescence measured on an EnVision plate reader. Data were normalised to vehicle control (100%) and cells treated with 0.1% Triton x-100 for 1 hour before viability measurement (0%; full cell kill). IC50 values were determined using a semi-logistic curve fit with parameters “top” fixed at 100% and “bottom” at or below 0%. Viability curves generated in the presence of MLN4924 were normalised and fixed to controls treated with MLN4924.

[3] = biological target: Human CDK12 wt/CycK (Homo sapiens (Human), UniProt Q9NYV4); experiment: Radiometric protein kinase assay (33PanQinase Activity Assay), CDK12; assay type: biochemical; settings: for CDK7/CDK12: ratio of CDK7 IC50 to CDK12 IC50, greater than 1 indicates selectivity for CDK12
Method: (§2) A radiometric protein kinase assay (^33PanQinase® Activity Assay) was used for measuring the kinase activity of the two protein kinases (CDK12/CDK7). All kinase assays were performed in 96-well FlashPlates™ from PerkinElmer (Boston, MA, USA) in a 50 μL reaction volume.
(§3) The reaction cocktail was pipetted in four steps in the following order: • 20 μL of assay buffer (standard buffer) • 5 μL of ATP solution (in H2O) • 5 μL of test compound (in 10% DMSO) • 10 μL of substrate/10 μL of enzyme solution (premixed)
(§4) The reaction mixture was incubated at 30° C. for 60 min and then stopped by the addition of 2% (v/v) H3PO4. Plates were aspirated and washed two times with 200 μL 0.9% (w/v) NaCl. Incorporation of ^33Pi was determined with a microplate scintillation count (Microbeta, Wallac).
The fitting method used was a least-squares fit.

[4] = biological target: Human CDK7/CycH/MAT1 (Homo sapiens (Human), UniProt P50613); experiment: Radiometric protein kinase assay (33PanQinase Activity Assay), CDK7; assay type: biochemical; settings: ATP 3 μM
Method: Additionally for the CDK7 assay: • Human CDK7/CycH/MAT1 (ProQinase, 0366-0360-4—Lot 2). • RBER-CHKtide (ProQinase, 0581-0000-5—Lot 106).
as §2, §3
For the CDK7 assay, a reaction mixture (50 μL) containing the following components was prepared: • 70 mM HEPES-NaOH (pH 7.5); • sodium orthovanadate (3 μM); • PEG-20000 (50 μg/mL); • DTT (1.2 mM); • MgCl2 (3 mM); • MnCl2 (3 mM); • purified human CDK7/CycH/MAT1 (3.3 nM—Lot 02); • RBER-CHKtide substrate (40 μg/mL—Lot 106); • ATP (3 μM); • [γ-33P]-ATP (approx. 8×10^5 cpm per well); and • test compound at the appropriate concentration such that the final concentration of DMSO was […].
as §4
The residual activities for each concentration and the compound IC50 values were calculated using Quattro Workflow V3.1.1 (Quattro Research GmbH, Munich, Germany). The fitting model for the IC50 determinations was “Sigmoidal response (variable slope)” with parameters “top” fixed at 100% and “bottom” at 0%. The fitting method used was a least-squares fit.

[5] = A673, read-out: Cellular Potency IC50 (nM) (in A673 cells)
[6] = A673 cells, 72 hours, read-out: A673 IC50
[7] = ATP 0.3 μM, read-out: CDK12 IC50
[8] = read-out: CKD12 Biochemical Potency IC50

Sequence of Human CDK7/CycH/MAT1 (P50613 whole entry): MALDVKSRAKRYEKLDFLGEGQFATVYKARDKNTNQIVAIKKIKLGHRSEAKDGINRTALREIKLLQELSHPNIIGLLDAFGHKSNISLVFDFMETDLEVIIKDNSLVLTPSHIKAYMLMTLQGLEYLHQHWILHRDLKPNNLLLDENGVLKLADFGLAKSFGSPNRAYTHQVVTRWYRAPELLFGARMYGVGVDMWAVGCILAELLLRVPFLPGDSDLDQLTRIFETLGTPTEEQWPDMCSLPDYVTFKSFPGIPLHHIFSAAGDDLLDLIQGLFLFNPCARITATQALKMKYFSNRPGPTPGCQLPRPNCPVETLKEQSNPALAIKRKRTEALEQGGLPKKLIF
Sequence of Human CDK7/CycH/MAT1 (P51946 whole entry partner): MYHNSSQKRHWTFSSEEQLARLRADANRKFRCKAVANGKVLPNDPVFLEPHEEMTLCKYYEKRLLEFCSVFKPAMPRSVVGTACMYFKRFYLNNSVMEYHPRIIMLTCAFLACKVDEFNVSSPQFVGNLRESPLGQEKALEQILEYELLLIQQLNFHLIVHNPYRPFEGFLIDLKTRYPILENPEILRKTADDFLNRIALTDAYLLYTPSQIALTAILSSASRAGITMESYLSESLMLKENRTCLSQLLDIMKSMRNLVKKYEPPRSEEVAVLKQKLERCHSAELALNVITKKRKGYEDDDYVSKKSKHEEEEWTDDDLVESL
Sequence of Human CDK7/CycH/MAT1 (P51948 whole entry partner): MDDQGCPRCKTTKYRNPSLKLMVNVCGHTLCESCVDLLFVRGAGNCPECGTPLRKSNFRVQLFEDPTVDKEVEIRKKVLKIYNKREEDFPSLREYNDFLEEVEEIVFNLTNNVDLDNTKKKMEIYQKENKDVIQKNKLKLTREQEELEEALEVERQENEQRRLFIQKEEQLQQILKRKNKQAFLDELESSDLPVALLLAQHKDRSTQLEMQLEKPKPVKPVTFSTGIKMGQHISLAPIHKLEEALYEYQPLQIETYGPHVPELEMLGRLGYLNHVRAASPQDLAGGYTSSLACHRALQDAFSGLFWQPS
Sequence of Human CDK12 wt/CycK (Q9NYV4 whole entry): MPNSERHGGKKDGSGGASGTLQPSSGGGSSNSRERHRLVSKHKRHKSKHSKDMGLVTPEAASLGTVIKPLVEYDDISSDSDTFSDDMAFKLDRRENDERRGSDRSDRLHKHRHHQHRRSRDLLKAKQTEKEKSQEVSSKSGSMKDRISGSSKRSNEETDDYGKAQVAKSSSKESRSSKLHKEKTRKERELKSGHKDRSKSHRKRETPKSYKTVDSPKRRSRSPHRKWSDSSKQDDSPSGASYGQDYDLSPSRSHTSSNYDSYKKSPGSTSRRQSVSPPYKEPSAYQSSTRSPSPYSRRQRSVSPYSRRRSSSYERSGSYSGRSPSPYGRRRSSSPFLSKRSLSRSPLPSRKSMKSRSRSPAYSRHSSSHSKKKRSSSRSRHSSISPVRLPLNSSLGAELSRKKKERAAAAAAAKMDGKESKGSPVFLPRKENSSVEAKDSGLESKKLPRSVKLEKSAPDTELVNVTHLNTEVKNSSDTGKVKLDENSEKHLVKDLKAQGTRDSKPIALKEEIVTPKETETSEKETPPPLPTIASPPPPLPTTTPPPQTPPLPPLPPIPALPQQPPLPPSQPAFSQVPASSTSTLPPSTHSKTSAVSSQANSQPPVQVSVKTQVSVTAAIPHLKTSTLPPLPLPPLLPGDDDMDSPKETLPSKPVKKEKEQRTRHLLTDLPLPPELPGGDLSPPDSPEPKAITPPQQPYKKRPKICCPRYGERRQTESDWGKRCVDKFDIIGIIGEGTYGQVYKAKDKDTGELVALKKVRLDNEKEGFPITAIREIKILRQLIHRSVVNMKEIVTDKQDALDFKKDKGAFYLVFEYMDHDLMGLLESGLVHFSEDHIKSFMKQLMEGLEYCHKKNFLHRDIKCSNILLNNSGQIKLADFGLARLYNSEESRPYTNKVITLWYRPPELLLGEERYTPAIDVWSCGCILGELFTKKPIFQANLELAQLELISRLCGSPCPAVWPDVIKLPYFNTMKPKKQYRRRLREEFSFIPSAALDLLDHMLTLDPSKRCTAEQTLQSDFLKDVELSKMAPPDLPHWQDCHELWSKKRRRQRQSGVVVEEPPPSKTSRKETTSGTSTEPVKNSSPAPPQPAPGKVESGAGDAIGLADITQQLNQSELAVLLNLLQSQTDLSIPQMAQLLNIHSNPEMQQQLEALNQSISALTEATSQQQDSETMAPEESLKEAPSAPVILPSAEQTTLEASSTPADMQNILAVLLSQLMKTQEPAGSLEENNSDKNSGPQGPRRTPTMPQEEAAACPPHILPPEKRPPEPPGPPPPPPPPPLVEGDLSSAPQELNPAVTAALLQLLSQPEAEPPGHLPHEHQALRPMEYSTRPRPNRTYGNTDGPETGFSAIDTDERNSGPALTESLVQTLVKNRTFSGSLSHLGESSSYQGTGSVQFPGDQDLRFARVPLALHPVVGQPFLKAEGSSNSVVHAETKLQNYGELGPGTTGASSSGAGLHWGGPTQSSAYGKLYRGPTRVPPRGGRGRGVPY
Sequence of Human CDK12 wt/CycK (O75909 whole entry partner): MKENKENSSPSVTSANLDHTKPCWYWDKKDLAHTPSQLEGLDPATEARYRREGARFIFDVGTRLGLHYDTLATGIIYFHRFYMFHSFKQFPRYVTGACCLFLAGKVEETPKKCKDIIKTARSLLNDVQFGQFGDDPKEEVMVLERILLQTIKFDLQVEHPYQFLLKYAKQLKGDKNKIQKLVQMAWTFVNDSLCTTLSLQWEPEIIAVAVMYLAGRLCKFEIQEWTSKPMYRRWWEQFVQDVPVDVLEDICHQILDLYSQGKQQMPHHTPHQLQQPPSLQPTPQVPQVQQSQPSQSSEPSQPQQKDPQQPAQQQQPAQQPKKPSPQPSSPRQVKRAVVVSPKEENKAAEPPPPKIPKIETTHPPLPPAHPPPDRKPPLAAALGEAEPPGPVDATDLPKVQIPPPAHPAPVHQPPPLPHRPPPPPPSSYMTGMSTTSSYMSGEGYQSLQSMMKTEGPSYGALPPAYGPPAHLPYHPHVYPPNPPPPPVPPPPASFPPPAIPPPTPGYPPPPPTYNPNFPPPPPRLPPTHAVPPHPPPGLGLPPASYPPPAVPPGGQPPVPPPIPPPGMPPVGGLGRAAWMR

SMILES	IC50 [3, 7]	CDK7/CDK12 [3]	IC50 [3, 8]	IC50 [4]	IC50 [1, 5]	IC50 [1, 6]	Cyclin K Degrader Activity (A673 potency shift + MLN4924) [2]	Ratio of Biochemical Potency:Cellular Potency [1]
c1ccc(-c2ccc(CNc3cc(C4CCNCC4)nc4c(C5CC5)cnn34)cc2)nc1 [PPA-100]					1.5 nM	43.5 nM	+++ (>5 fold change.)	
c1ccc(-c2ccc(CNc3cc(O[C@@H]4CCNC4)nc4c(C5CC5)cnn34)cc2)nc1 [PPA-060]	77 nM	37.3	77 nM	2870 nM	2.9 nM	2.9 nM	+++ (>5 fold change.)	26.55
Fc1cc(-c2ccccn2)ccc1CNc1cc(N[C@H]2CCNC2)nc2c(C3CC3)cnn12 [PPA-072]	34 nM	29.4	34 nM	1000 nM	0.8 nM	0.8 nM	+++ (>5 fold change.)	42.50
c1csc(-c2ccc(CNc3cc(N[C@H]4CCNC4)nc4c(C5CC5)cnn34)cc2)n1 [PPA-098]					8.1 nM	3.2 nM	+++ (>5 fold change.)	
c1cnn(-c2ccc(CNc3cc(N[C@H]4CCCNC4)nc4c(C5CC5)cnn34)cc2)c1 [PPA-099]					1.2 nM	0.9 nM	++ (>2 and ≤5 fold change.)	
N#Cc1cnn2c(NCc3ccc(-c4ncccn4)cc3)cc(N[C@H]3CCCNC3)nc12 [PPA-094]					0.9 nM	1.9 nM	+++ (>5 fold change.)	
Cc1ncccc1-c1cc(NCc2ccc(-c3ccccn3)cc2)n2ncc(C3CC3)c2n1 [PPA-096]					14.9 nM	7.6 nM	+++ (>5 fold change.)	
c1cnn(-c2ccc(CNc3cc(OC4CNC4)nc4c(C5CC5)cnn34)cc2)c1 [PPA-097]					3.5 nM	0.4 nM	+++ (>5 fold change.)	
CC(C)c1cnn2c(NCc3ccc(-c4cccnc4)cc3)cc(NC[C@H]3CCNC[C@@H]3O)nc12 [PPA-003, (3R,4R)-4-(((3-isopropyl-7-((4-(pyridin-3-yl)benzyl)amino)pyrazolo[1,5-a]pyrimidin-5-yl)amino)methyl)piperidin-3-ol]	47 nM	1.6	47 nM	76 nM	16.2 nM	16.2 nM		2.90
N[C@H]1CC(=O)N(c2cc(NCc3ccc(-c4ccccn4)cc3)n3ncc(C4CC4)c3n2)C1 [PPA-078]	593 nM	10.5	593 nM	6240 nM	30.2 nM	30.2 nM		19.64
COc1cccnc1-c1ccc(CNc2cc(NC[C@H]3CCNC[C@@H]3O)nc3c(C4CC4)cnn23)cc1 [PPA-027]	163 nM	1.8	163 nM	300 nM	2.2 nM	2.2 nM		74.09
Cc1n[nH]cc1-c1cc(NCc2ccc(-c3ccccn3)cc2)n2ncc(C3CC3)c2n1 [PPA-095]					43.5 nM	4.7 nM	+ (>1 and ≤2 fold change.)	
CN(C[C@H]1CCNC[C@@H]1O)c1cc(NCc2ccc(-c3ccccn3)cc2)n2ncc(C3CC3)c2n1 [PPA-053]	53 nM	3.2	53 nM	169 nM	2.5 nM	2.5 nM		21.20
N#Cc1cnn2c(NCc3ccc(-c4ccccn4)cc3)cc(NC[C@H]3CCNC[C@@H]3O)nc12 [PPA-010]	36 nM	9.4	36 nM	340 nM	8 nM	8 nM		4.50
c1ccc(-c2ccc(CNc3cc(N4CCNC5(CC5)C4)nc4c(C5CC5)cnn34)cc2)nc1 [PPA-077]	41 nM	33.9	41 nM	1390 nM	7.5 nM	7.5 nM		5.47

Continued, in another order:

IC50 [3, 7]	CDK7/CDK12 [3]	IC50 [3, 8]	IC50 [4]	SMILES	IC50 [1, 5]	IC50 [1, 6]	Cyclin K Degrader Activity (A673 potency shift + MLN4924) [2]	Ratio of Biochemical Potency:Cellular Potency [1]
122 nM	2.2	122 nM	267 nM	CCc1cnn2c(NCc3ccc(-c4ccccc4)cc3F)cc(NC[C@H]3CCNC[C@@H]3O)nc12 [PPA-069]	10.5 nM	10.5 nM	++ (>2 and ≤5 fold change.)	11.62
70 nM	3.2	70 nM	224 nM	O[C@H]1CNCC[C@@H]1CNc1cc(NCc2ccc(-c3ccc(F)cn3)cc2)n2ncc(C3CC3)c2n1 [PPA-019]	52.4 nM	52.4 nM		1.34
664 nM	16.9	664 nM	11200 nM	O=C1CC(CNc2cc(NCc3ccc(-c4ccccn4)cc3)n3ncc(C4CC4)c3n2)CCN1 (stereo not shown) [PPA-051]	28.9 nM	28.9 nM		22.98
52 nM	2.2	52 nM	113 nM	O[C@H]1CNCC[C@@H]1CNc1cc(NCc2ccc(-c3cscn3)cc2)n2ncc(C3CC3)c2n1 [PPA-035]	1.8 nM	1.8 nM		28.89
63 nM	2.8	63 nM	179 nM	O[C@H]1CNCC[C@@H]1CNc1cc(NCc2ccc(-c3ncccn3)cc2)n2ncc(C3CC3)c2n1 [PPA-029]	1.4 nM	1.4 nM		45.00
160 nM	1.0	160 nM	153 nM	Cc1cc(CNc2cc(NC[C@H]3CCNC[C@@H]3O)nc3c(C(C)C)cnn23)ccc1-c1ccccn1 [PPA-011]	69 nM	69 nM		2.32
82 nM	15.7	82 nM	1290 nM	c1ccc(-c2ccc(CNc3cc(NC4CCNCC4)nc4c(C5CC5)cnn34)cc2)nc1 [PPA-048]	6.8 nM	6.8 nM		12.06
188 nM	0.9	188 nM	165 nM	Cc1cccnc1-c1ccc(CNc2cc(NC[C@H]3CCNC[C@@H]3O)nc3c(C(C)C)cnn23)cc1 [PPA-012]	14.1 nM	14.1 nM		13.33
